Laboratory results: US4820694A, “Modifications of 3-O-demethylmycinose in macrocin and lactenocin” (priority 1986, dated 1989)
In brackets after ≈: the same amount, converted by molar mass. Where two headings read alike, the source gives them in different places.

How the values were obtained:
[1] = test system: Streptococcus pyogenes C203; assay: protection of mice experimentally infected with S. pyogenes C203; assay type: in vivo
Experimental: The formula 1 compounds have shown in vivo antimicrobial activity against experimentally-induced infections in laboratory animals. When two doses of test compound were administered to mice experimentally infected with S. pyrogenes C203, the activity observed was measured as an ED50 value [effective dose in mg/kg to protect 50% of the test animals: see Warren Wick, et al., J. Bacteriol. 81, 233-235 (1961)].
^a mg/kg × 2; doses given 1 and 4 hours postinfection

Mycoplasma hyorhinis 29E = assay: broth-dilution microtiter MIC test; assay type: cell-based; settings: Mycoplasma, 29E
Experimental: (§1) The MIC's in Table III were determined by standard agar-dilution assays. The MIC's in Table IV were obtained using conventional brothdilution microtiter tests.

[2] = test system: Pasteurella multocida 22A; assay: broth-dilution microtiter MIC test; assay type: cell-based; settings: Pasteurella multocida, 22A
Experimental: as §1

Mycoplasma synoviae 40A = assay: broth-dilution microtiter MIC test; assay type: cell-based; settings: Mycoplasmopsis synoviae, 40A
Experimental: as §1

[3] = test system: Mycoplasma gallisepticum 15E; assay: broth-dilution microtiter MIC test; assay type: cell-based; settings: Mycoplasmoides gallisepticum, 15E
Experimental: as §1

[4] = test system: Pasteurella hemolytica 23C; assay: broth-dilution microtiter MIC test; assay type: cell-based; settings: Pasteurella, 23C
Experimental: as §1

[5] = test system: Pasteurella hemolytica 22C; assay: broth-dilution microtiter MIC test; assay type: cell-based; settings: Pasteurella, 22C
Experimental: as §1

[6] = test system: Pasteurella multocida 40G; assay: broth-dilution microtiter MIC test; assay type: cell-based; settings: Pasteurella multocida, 40G
Experimental: as §1

[7] = test system: Pasteurella multocida 60A; assay: broth-dilution microtiter MIC test; assay type: cell-based; settings: Pasteurella multocida, 60A
Experimental: as §1

[8] = test system: Mycoplasma gallisepticum 29C; assay: broth-dilution microtiter MIC test; assay type: cell-based; settings: Mycoplasmoides gallisepticum, 29C
Experimental: as §1

[9] = test system: Pasteurella multocida 17E; assay: broth-dilution microtiter MIC test; assay type: cell-based; settings: Pasteurella multocida, 17E
Experimental: as §1

[10] = test system: Pasteurella multocida 68C; assay: broth-dilution microtiter MIC test; assay type: cell-based; settings: Pasteurella multocida, 68C
Experimental: as §1

[11] = test system: Staphylococcus aureus 19C; assay: broth-dilution microtiter MIC test; assay type: cell-based; settings: Staphylococcus aureus, 19C
Experimental: as §1

Streptococcus sp. 19F = assay: broth-dilution microtiter MIC test; assay type: cell-based; settings: Streptococcus, SP.19F
Experimental: as §1

[12] = test system: Bordetella bronchiseptica; assay: broth-dilution microtiter MIC test; assay type: cell-based; settings: Bordetella bronchiseptica
Experimental: as §1

[13] = test system: Mycoplasma gallisepticum 36H; assay: broth-dilution microtiter MIC test; assay type: cell-based; settings: Mycoplasmoides gallisepticum, 36H
Experimental: as §1

[14] = test system: Pasteurella hemolytica 41D; assay: broth-dilution microtiter MIC test; assay type: cell-based; settings: Pasteurella, 41D
Experimental: as §1

[15] = test system: Staphylococcus epidermidis EPI1; assay: standard agar-dilution MIC assay; assay type: cell-based; settings: Staphylococcus epidermidis, EPI1
Experimental: as §1

[16] = test system: Streptococcus pyogenes C203; assay: standard agar-dilution MIC assay; assay type: cell-based; settings: Streptococcus pyogenes, C203
Experimental: as §1

[17] = test system: Staphylococcus aureus X400; assay: standard agar-dilution MIC assay; assay type: cell-based; settings: Staphylococcus aureus, X400
Experimental: as §1

Escherichia coli EC14 = assay: standard agar-dilution MIC assay; assay type: cell-based
Experimental: as §1

[18] = test system: Streptococcus Group D X66; assay: standard agar-dilution MIC assay; assay type: cell-based; settings: read-out: MIC
Experimental: as §1

[19] = test system: Staphylococcus aureus X1.1; assay: standard agar-dilution MIC assay; assay type: cell-based; settings: Staphylococcus aureus, X1.1
Experimental: as §1

[20] = test system: Pseudomonas aeruginosa X239; assay: standard agar-dilution MIC assay; assay type: cell-based; settings: Pseudomonas aeruginosa, X239
Experimental: as §1

[21] = test system: Haemophilus influenzae 76; assay: standard agar-dilution MIC assay; assay type: cell-based; settings: Haemophilus influenzae, 76
Experimental: as §1

[22] = test system: Streptococcus Group D 9960; assay: standard agar-dilution MIC assay; assay type: cell-based; settings: GROUPD9960, read-out: MIC
Experimental: as §1

[23] = test system: Klebsiella pneumoniae X68; assay: standard agar-dilution MIC assay; assay type: cell-based; settings: Klebsiella pneumoniae, X68
Experimental: as §1

[24] = test system: Staphylococcus aureus V41; assay: standard agar-dilution MIC assay; assay type: cell-based; settings: Staphylococcus aureus, V41
Experimental: as §1

[25] = test system: Haemophilus influenzae C.L.; assay: standard agar-dilution MIC assay; assay type: cell-based; settings: Haemophilus influenzae
Experimental: as §1

[26] = test system: Staphylococcus aureus S13E; assay: microbe, parasite or virus in culture; assay type: cell-based; settings: Staphylococcus aureus, S13E
Experimental: as §1

[27] = test system: Streptococcus pneumoniae Park I; assay: microbe, parasite or virus in culture; assay type: cell-based; settings: Streptococcus pneumoniae
Experimental: as §1

[28] = broth-dilution microtiter, read-out: MIC

SMILES	MIC (Mycoplasma hyorhinis 29E)	MIC (Mycoplasma synoviae 40A)	MIC [3]	MIC [6]	MIC [8]	MIC [10]	MIC [11]	MIC (Streptococcus sp. 19F)	MIC [13]	MIC [15]	MIC [16]	MIC [17]	MIC [18]	MIC [19]	MIC [21]	MIC [22]	MIC [24]	MIC [26]	MIC [27]	further results
CCC1OC(=O)CC(O)C(C)C(OC2OC(C)C(OC3CC(C)(O)C(O)C(C)O3)C(N(C)C)C2O)C(CC=O)CC(C)C(=O)C=CC(C)=CC1COC1OC(C)C(OC(=O)Cc2ccccc2)C(O)C1OC (stereo not shown) [Compound 10, 4'"-O-Phenylacetyl-macrocin]	3.12 µg/mL (≈ 3.06 µM)	1.56 µg/mL (≈ 1.53 µM)	12.5 µg/mL (≈ 12.3 µM)	> 50 µg/mL	0.39 µg/mL (≈ 0.382 µM)	50 µg/mL (≈ 49 µM)	1.56 µg/mL (≈ 1.53 µM)	0.78 µg/mL (≈ 0.765 µM)	12.5 µg/mL (≈ 12.3 µM)	1 µg/mL (≈ 0.98 µM)	0.5 µg/mL (≈ 0.49 µM)	2 µg/mL (≈ 1.96 µM)	1 µg/mL (≈ 0.98 µM)	1 µg/mL (≈ 0.98 µM)	16 µg/mL (≈ 15.7 µM)	1 µg/mL (≈ 0.98 µM)	1 µg/mL (≈ 0.98 µM)	1 µg/mL (≈ 0.98 µM)	0.25 µg/mL (≈ 0.245 µM)	ED50 ([1]; C203, po): 38.8 mg/kg; ED50 ([1]; C203, sc): 1.9 mg/kg; MIC [2]: > 50 µg/mL; MIC [4]: > 50 µg/mL; MIC [5]: > 50 µg/mL; MIC [7]: > 50 µg/mL; MIC [9]: 50 µg/mL (≈ 49 µM); MIC [12]: > 50 µg/mL; MIC [14]: > 50 µg/mL; MIC (Escherichia coli EC14): > 128 µg/mL; MIC [20]: > 128 µg/mL; MIC [23]: > 128 µg/mL; MIC [25]: 32 µg/mL (≈ 31.4 µM)
CCC1OC(=O)CC(O)C(C)C(OC2OC(C)C(O)C(N(C)C)C2O)C(CC=O)CC(C)C(=O)C=CC(C)=CC1COC1OC(C)C(OC(=O)CC(C)C)C(OC(=O)CC(C)C)C1OC (stereo not shown) [Compound 28, 3",4"-Di-O-isovaleryl-lactenocin]	6.25 µg/mL (≈ 6.75 µM)	12.5 µg/mL (≈ 13.5 µM)	25 µg/mL (≈ 27 µM)	50 µg/mL (≈ 54 µM)	1.56 µg/mL (≈ 1.68 µM)	50 µg/mL (≈ 54 µM)	6.25 µg/mL (≈ 6.75 µM)	3.12 µg/mL (≈ 3.37 µM)	50 µg/mL (≈ 54 µM)	2 µg/mL (≈ 2.16 µM)	2 µg/mL (≈ 2.16 µM)	4 µg/mL (≈ 4.32 µM)	4 µg/mL (≈ 4.32 µM)	2 µg/mL (≈ 2.16 µM)	64 µg/mL (≈ 69.1 µM)	4 µg/mL (≈ 4.32 µM)	2 µg/mL (≈ 2.16 µM)	2 µg/mL (≈ 2.16 µM)	0.5 µg/mL (≈ 0.54 µM)	ED50 ([1]; C203, Oral, mice, mg/kg × 2, doses given 1 and 4 hours postinfection, read-out: ED50): 21.4 mg/kg; ED50 ([1]; C203, sc, Subcutaneous, mice, mg/kg × 2, doses given 1 and 4 hours postinfection, read-out: ED50): > 6.25 mg/kg; MIC [2, 28]: > 50 µg/mL; MIC [4, 28]: > 50 µg/mL; MIC [5, 28]: > 50 µg/mL; MIC ([7]; broth-dilution microtiter, Avian isolate, read-out: MIC): > 50 µg/mL; MIC ([9]; broth-dilution microtiter, Bovine isolate, read-out: MIC): > 50 µg/mL; MIC [12, 28]: > 50 µg/mL; MIC [14, 28]: > 50 µg/mL; MIC (Escherichia coli EC14; agar-dilution, read-out: MIC): > 128 µg/mL; MIC ([20]; agar-dilution, read-out: MIC): > 128 µg/mL; MIC ([23]; agar-dilution, read-out: MIC): > 128 µg/mL; MIC ([25]; agar-dilution, Ampicillin-sensitive strain, read-out: MIC): 128 µg/mL (≈ 138 µM)
